Experimental findings from paper PMC8080530, “Glucocorticoid receptor Thr524 phosphorylation by MINK1 induces interactions with 14-3-3 protein regulators” (The Journal of Biological Chemistry, 2021) are described below.

SMILES strings stand for the structures. Non-standard residues stand in square brackets, D forms with d. Residues, ends and D or L forms follow the SMILES beside them. pT = C[C@@H](OP(=O)(O)O)[C@H](N)C(=O)O; pS = N[C@@H](COP(=O)(O)O)C(=O)O

One assay concerns the target T1, 14-3-3ζ (Homo sapiens, UniProt P63104).
T1 construct: Full-length expression and purification of 14-3-3; made in house; host or cells: E. coli BL21 (DE3)STAR
T1 sequence (P63104 1-245): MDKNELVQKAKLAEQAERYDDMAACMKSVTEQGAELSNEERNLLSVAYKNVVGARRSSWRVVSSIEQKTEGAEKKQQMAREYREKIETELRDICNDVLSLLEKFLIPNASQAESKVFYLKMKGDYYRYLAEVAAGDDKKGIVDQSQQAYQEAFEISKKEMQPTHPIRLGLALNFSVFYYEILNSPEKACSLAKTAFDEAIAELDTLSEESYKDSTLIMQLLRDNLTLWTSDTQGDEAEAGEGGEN
In words: FP assay with GR phosphorylated peptides and 14-3-3ζ. The assay is classed as binding. The conditions noted are these: FP, doubly phosphorylated 31-mer peptides, triplicates; read-out: Kd with 14-3-3ζ (values in nM). How it is done:
After 30-min incubation at RT, the plates were read on a plate reader PHERAstar (BMG LABTECH GmbH) for FP signal using […] and standard excitation (485 nm) and emission (520 nm). Measurements were performed as triplicates. Binding data were fit to a standard Hill equation using the software Genedata Screener. The figures were made using the software GraphPad Prism 8. FP data were expressed as millipolarization (mP) units, and the dynamic range (ΔmP) was the difference of the signals from the bound peptide and free peptide. Errors are the standard error of the fit.
`CC[C@H](C)[C@H](NC(=O)[C@@H](NC(=O)[C@@H](N)CCCCN)[C@@H](C)O)C(=O)N[C@H](C(=O)N1CCC[C@H]1C(=O)N[C@@H](C)C(=O)N[C@H](C(=O)N[C@@H](CC(C)C)C(=O)N1CCC[C@H]1C(=O)N[C@@H](CCC(N)=O)C(=O)N[C@@H](CC(C)C)C(=O)N[C@H](C(=O)N1CCC[C@H]1C(=O)NCC(=O)NCC(=O)NCC(=O)NCC(=O)NCC(=O)N[C@@H](CCCNC(=N)N)C(=O)N[C@@H](CO)C(=O)N[C@@H](Cc1ccc(O)cc1)C(=O)N[C@@H](C)C(=O)N[C@@H](CCC(N)=O)C(=O)N[C@@H](CO)C(=O)N[C@@H](COP(=O)(O)O)C(=O)N[C@@H](C)C(=O)N[C@@H](CC(N)=O)C(=O)N[C@@H](CC(C)C)C(=O)N[C@@H](CC(C)C)C(=O)N[C@@H](CS)C(=O)N[C@@H](Cc1ccccc1)C(=O)O)[C@@H](C)O)[C@@H](C)OP(=O)(O)O)C(C)C` [GR_R614A] (H-KTIVPA[pT]LPQLTPGGGGGRSYAQS[pS]ANLLCF-OH): the Kd stood at 220 nM.

The same assay, now with this note: read-out: PKd with 14-3-3ζ (converted).
In the case of `CC[C@H](C)[C@H](NC(=O)[C@@H](NC(=O)[C@@H](N)CCCCN)[C@@H](C)O)C(=O)N[C@H](C(=O)N[C@@H](C)C(=O)N[C@@H](C)C(=O)N[C@H](C(=O)N[C@@H](CC(C)C)C(=O)N1CCC[C@H]1C(=O)N[C@@H](CCC(N)=O)C(=O)N[C@@H](CC(C)C)C(=O)N[C@H](C(=O)N1CCC[C@H]1C(=O)NCC(=O)NCC(=O)NCC(=O)NCC(=O)NCC(=O)N[C@@H](CCCNC(=N)N)C(=O)N[C@@H](CO)C(=O)N[C@@H](Cc1ccc(O)cc1)C(=O)N[C@@H](CCCNC(=N)N)C(=O)N[C@@H](CCC(N)=O)C(=O)N[C@@H](CO)C(=O)N[C@@H](COP(=O)(O)O)C(=O)N[C@@H](C)C(=O)N[C@@H](CC(N)=O)C(=O)N[C@@H](CC(C)C)C(=O)N[C@@H](CC(C)C)C(=O)N[C@@H](CS)C(=O)N[C@@H](Cc1ccccc1)C(=O)O)[C@@H](C)O)[C@@H](C)OP(=O)(O)O)C(C)C` [GR_P522A] (H-KTIVAA[pT]LPQLTPGGGGGRSYRQS[pS]ANLLCF-OH), the Kd is 63.1 nM.

Regarding `CC[C@H](C)[C@H](NC(=O)[C@@H](NC(=O)[C@@H](N)CCCCN)[C@@H](C)O)C(=O)N[C@H](C(=O)N1CCC[C@H]1C(=O)N[C@@H](C)C(=O)N[C@H](C(=O)N[C@@H](CC(C)C)C(=O)N[C@@H](C)C(=O)N[C@@H](CCC(N)=O)C(=O)N[C@@H](CC(C)C)C(=O)N[C@H](C(=O)N1CCC[C@H]1C(=O)NCC(=O)NCC(=O)NCC(=O)NCC(=O)NCC(=O)N[C@@H](CCCNC(=N)N)C(=O)N[C@@H](CO)C(=O)N[C@@H](Cc1ccc(O)cc1)C(=O)N[C@@H](CCCNC(=N)N)C(=O)N[C@@H](CCC(N)=O)C(=O)N[C@@H](CO)C(=O)N[C@@H](COP(=O)(O)O)C(=O)N[C@@H](C)C(=O)N[C@@H](CC(N)=O)C(=O)N[C@@H](CC(C)C)C(=O)N[C@@H](CC(C)C)C(=O)N[C@@H](CS)C(=O)N[C@@H](Cc1ccccc1)C(=O)O)[C@@H](C)O)[C@@H](C)OP(=O)(O)O)C(C)C` [GR_P526A] (H-KTIVPA[pT]LAQLTPGGGGGRSYRQS[pS]ANLLCF-OH), the Kd is 1260 nM. For the compound `CC[C@H](C)[C@H](NC(=O)[C@@H](NC(=O)[C@@H](N)CCCCN)[C@@H](C)O)C(=O)N[C@H](C(=O)N1CCC[C@H]1C(=O)N[C@@H](C)C(=O)N[C@H](C(=O)N[C@@H](CC(C)C)C(=O)N1CCC[C@H]1C(=O)N[C@@H](CCC(N)=O)C(=O)N[C@@H](CC(C)C)C(=O)N[C@H](C(=O)N[C@@H](C)C(=O)NCC(=O)NCC(=O)NCC(=O)NCC(=O)NCC(=O)N[C@@H](CCCNC(=N)N)C(=O)N[C@@H](CO)C(=O)N[C@@H](Cc1ccc(O)cc1)C(=O)N[C@@H](CCCNC(=N)N)C(=O)N[C@@H](CCC(N)=O)C(=O)N[C@@H](CO)C(=O)N[C@@H](COP(=O)(O)O)C(=O)N[C@@H](C)C(=O)N[C@@H](CC(N)=O)C(=O)N[C@@H](CC(C)C)C(=O)N[C@@H](CC(C)C)C(=O)N[C@@H](CS)C(=O)N[C@@H](Cc1ccccc1)C(=O)O)[C@@H](C)O)[C@@H](C)OP(=O)(O)O)C(C)C` [GR_P530A] (H-KTIVPA[pT]LPQLTAGGGGGRSYRQS[pS]ANLLCF-OH), the Kd is 31.6 nM. Still for that read-out and setting: under `CC[C@H](C)[C@H](NC(=O)[C@@H](NC(=O)[C@@H](N)CCCCN)[C@@H](C)O)C(=O)N[C@H](C(=O)N1CCC[C@H]1C(=O)N[C@@H](C)C(=O)N[C@H](C(=O)N[C@@H](CC(C)C)C(=O)N1CCC[C@H]1C(=O)N[C@@H](C)C(=O)N[C@@H](CC(C)C)C(=O)N[C@H](C(=O)N1CCC[C@H]1C(=O)NCC(=O)NCC(=O)NCC(=O)NCC(=O)NCC(=O)N[C@@H](CCCNC(=N)N)C(=O)N[C@@H](CO)C(=O)N[C@@H](Cc1ccc(O)cc1)C(=O)N[C@@H](CCCNC(=N)N)C(=O)N[C@@H](CCC(N)=O)C(=O)N[C@@H](CO)C(=O)N[C@@H](COP(=O)(O)O)C(=O)N[C@@H](C)C(=O)N[C@@H](CC(N)=O)C(=O)N[C@@H](CC(C)C)C(=O)N[C@@H](CC(C)C)C(=O)N[C@@H](CS)C(=O)N[C@@H](Cc1ccccc1)C(=O)O)[C@@H](C)O)[C@@H](C)OP(=O)(O)O)C(C)C` [GR_Q527A] (H-KTIVPA[pT]LPALTPGGGGGRSYRQS[pS]ANLLCF-OH) stands 31.6 nM; under `CC[C@H](C)[C@H](NC(=O)[C@@H](NC(=O)[C@@H](N)CCCCN)[C@@H](C)O)C(=O)N[C@H](C(=O)N1CCC[C@H]1C(=O)N[C@@H](C)C(=O)N[C@H](C(=O)N[C@@H](CC(C)C)C(=O)N1CCC[C@H]1C(=O)N[C@@H](CCC(N)=O)C(=O)N[C@@H](CC(C)C)C(=O)N[C@H](C(=O)N1CCC[C@H]1C(=O)NCC(=O)NCC(=O)NCC(=O)NCC(=O)NCC(=O)N[C@@H](CCCNC(=N)N)C(=O)N[C@@H](CO)C(=O)N[C@@H](Cc1ccc(O)cc1)C(=O)N[C@@H](CCCNC(=N)N)C(=O)N[C@@H](C)C(=O)N[C@@H](CO)C(=O)N[C@@H](COP(=O)(O)O)C(=O)N[C@@H](C)C(=O)N[C@@H](CC(N)=O)C(=O)N[C@@H](CC(C)C)C(=O)N[C@@H](CC(C)C)C(=O)N[C@@H](CS)C(=O)N[C@@H](Cc1ccccc1)C(=O)O)[C@@H](C)O)[C@@H](C)OP(=O)(O)O)C(C)C` [GR_Q615A] (H-KTIVPA[pT]LPQLTPGGGGGRSYRAS[pS]ANLLCF-OH), 39.8 nM; under `CC[C@H](C)[C@H](NC(=O)[C@@H](NC(=O)[C@@H](N)CCCCN)[C@@H](C)O)C(=O)N[C@H](C(=O)N1CCC[C@H]1C(=O)N[C@@H](C)C(=O)N[C@H](C(=O)N[C@@H](CC(C)C)C(=O)N1CCC[C@H]1C(=O)N[C@@H](CCC(N)=O)C(=O)N[C@@H](CC(C)C)C(=O)N[C@H](C(=O)N1CCC[C@H]1C(=O)NCC(=O)NCC(=O)NCC(=O)NCC(=O)NCC(=O)N[C@@H](C)C(=O)N[C@@H](CO)C(=O)N[C@@H](Cc1ccc(O)cc1)C(=O)N[C@@H](CCCNC(=N)N)C(=O)N[C@@H](CCC(N)=O)C(=O)N[C@@H](CO)C(=O)N[C@@H](COP(=O)(O)O)C(=O)N[C@@H](C)C(=O)N[C@@H](CC(N)=O)C(=O)N[C@@H](CC(C)C)C(=O)N[C@@H](CC(C)C)C(=O)N[C@@H](CS)C(=O)N[C@@H](Cc1ccccc1)C(=O)O)[C@@H](C)O)[C@@H](C)OP(=O)(O)O)C(C)C` [GR_R611A] (H-KTIVPA[pT]LPQLTPGGGGGASYRQS[pS]ANLLCF-OH), 50.1 nM. For the compound `CC[C@H](C)[C@H](NC(=O)[C@@H](NC(=O)[C@@H](N)CCCCN)[C@@H](C)O)C(=O)N[C@H](C(=O)N1CCC[C@H]1C(=O)N[C@@H](C)C(=O)N[C@H](C(=O)N[C@@H](CC(C)C)C(=O)N1CCC[C@H]1C(=O)N[C@@H](CCC(N)=O)C(=O)N[C@@H](CC(C)C)C(=O)N[C@H](C(=O)N1CCC[C@H]1C(=O)NCC(=O)NCC(=O)NCC(=O)NCC(=O)NCC(=O)N[C@@H](CCCNC(=N)N)C(=O)N[C@@H](C)C(=O)N[C@@H](Cc1ccc(O)cc1)C(=O)N[C@@H](CCCNC(=N)N)C(=O)N[C@@H](CCC(N)=O)C(=O)N[C@@H](CO)C(=O)N[C@@H](COP(=O)(O)O)C(=O)N[C@@H](C)C(=O)N[C@@H](CC(N)=O)C(=O)N[C@@H](CC(C)C)C(=O)N[C@@H](CC(C)C)C(=O)N[C@@H](CS)C(=O)N[C@@H](Cc1ccccc1)C(=O)O)[C@@H](C)O)[C@@H](C)OP(=O)(O)O)C(C)C` [GR_S612A] (H-KTIVPA[pT]LPQLTPGGGGGRAYRQS[pS]ANLLCF-OH), the Kd is 31.6 nM. As for `CC[C@H](C)[C@H](NC(=O)[C@@H](NC(=O)[C@@H](N)CCCCN)[C@@H](C)O)C(=O)N[C@H](C(=O)N1CCC[C@H]1C(=O)N[C@@H](C)C(=O)N[C@H](C(=O)N[C@@H](CC(C)C)C(=O)N1CCC[C@H]1C(=O)N[C@@H](CCC(N)=O)C(=O)N[C@@H](CC(C)C)C(=O)N[C@H](C(=O)N1CCC[C@H]1C(=O)NCC(=O)NCC(=O)NCC(=O)NCC(=O)NCC(=O)N[C@@H](CCCNC(=N)N)C(=O)N[C@@H](CO)C(=O)N[C@@H](Cc1ccc(O)cc1)C(=O)N[C@@H](CCCNC(=N)N)C(=O)N[C@@H](CCC(N)=O)C(=O)N[C@@H](C)C(=O)N[C@@H](COP(=O)(O)O)C(=O)N[C@@H](C)C(=O)N[C@@H](CC(N)=O)C(=O)N[C@@H](CC(C)C)C(=O)N[C@@H](CC(C)C)C(=O)N[C@@H](CS)C(=O)N[C@@H](Cc1ccccc1)C(=O)O)[C@@H](C)O)[C@@H](C)OP(=O)(O)O)C(C)C` [GR_S616A] (H-KTIVPA[pT]LPQLTPGGGGGRSYRQA[pS]ANLLCF-OH), the Kd was 63.1 nM.
